13 molecules from patent US10385022B2, “3-amino-pyridines as GPBAR1 agonists” (HOFFMANN-LA ROCHE INC., priority 2011, dated 2019) can be followed below.

The target of the experiment is human GPBAR1 receptor (Homo sapiens (Human), UniProt Q8TDU6). In words: functional cAMP assay in CHO-dhfr(minus) cells expressing human GPBAR1 receptors. Format: cell-based. The conditions noted are these: CHO-dhfr(minus) cells expressing human GPBAR1, 30 min at 30° C. The method in brief: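 CHO-dhfr- cells were transfected with human GPBAR1, and a clone was chosen by cAMP response to lithocholic acid. EC50 values come from the cAMP read-out; specificity was checked in non-transfected CHO cells.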
human GPBAR1 receptor, sequence (Q8TDU6 whole entry): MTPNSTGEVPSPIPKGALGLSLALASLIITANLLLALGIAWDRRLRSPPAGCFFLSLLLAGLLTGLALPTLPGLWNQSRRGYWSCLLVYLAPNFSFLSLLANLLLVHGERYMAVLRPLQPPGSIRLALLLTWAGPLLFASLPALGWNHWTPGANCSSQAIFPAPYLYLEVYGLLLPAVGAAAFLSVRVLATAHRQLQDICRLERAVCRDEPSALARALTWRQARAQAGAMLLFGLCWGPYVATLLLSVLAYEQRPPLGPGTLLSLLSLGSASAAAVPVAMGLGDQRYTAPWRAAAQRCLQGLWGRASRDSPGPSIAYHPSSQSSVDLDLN

As to `COc1cc(F)ccc1-c1ccncc1N(C)C(=O)c1cc(SC2COC2)cc(C(F)(F)F)c1` [Example 251, N-[4-(4-Fluoro-2-methoxy-phenyl)-pyridin-3-yl]-N-methyl-3-(oxetan-3-ylsulfanyl)-5-trifluoromethyl-benzamide], a half-maximal effect (EC50) was put at 30 nM.
As to `COc1cc(F)ccc1-c1ccncc1N(C)C(=O)c1cc(OC(F)(F)F)cc(S(C)(=O)=O)c1` [Example 252, N-[4-(4-Fluoro-2-methoxy-phenyl)-pyridin-3-yl]-3-methanesulfonyl-N-methyl-5-trifluoromethoxy-benzamide], the midpoint of the response, the EC50, lay at 170 nM.
Regarding `Cc1ccc(F)cc1-c1cc(Cl)ncc1N(C)C(=O)c1cc(C(F)(F)F)cc(S(C)(=O)=O)c1` [Example 253, N-[6-Chloro-4-(5-fluoro-2-methyl-phenyl)-pyridin-3-yl]-3-methanesulfonyl-N-methyl-5-trifluoromethyl-benzamide], the response was half-maximal at 3040 nM (EC50).
In the case of `COc1cc(F)ccc1-c1ccncc1N(C)C(=O)c1cc(C(F)(F)F)cc(S(=O)(=O)CCCCC(N)=O)c1` [Example 254, 3-(4-Carbamoyl-butane-1-sulfonyl)-N-[4-(4-fluoro-2-methoxy-phenyl)-pyridin-3-yl]-N-methyl-5-trifluoromethyl-benzamide], a half-maximal response (EC50) required 54 nM. This EC50 lies about 56-fold lower than the previous one.
As for `COc1cc(F)ccc1-c1ccncc1N(C)C(=O)c1cc(C(F)(F)F)cc(S(=O)(=O)C2COC2)c1` [Example 255, N-[4-(4-Fluoro-2-methoxy-phenyl)-pyridin-3-yl]-N-methyl-3-(oxetane-3-sulfonyl)-5-trifluoromethyl-benzamide], the figure is 53 nM; as for `COc1cc(F)ccc1-c1ccncc1N(C)C(=O)c1cc(C(F)(F)F)cc(S(=O)(=O)N2CCOCC2)c1` [Example 256, N-[4-(4-Fluoro-2-methoxy-phenyl)-pyridin-3-yl]-N-methyl-3-(morpholine-4-sulfonyl)-5-trifluoromethyl-benzamide], 20 nM; as for `COc1cc(F)ccc1-c1ccncc1N(C)C(=O)c1cc(Cl)cc(S(C)(=O)=O)c1` [Example 257, 3-Chloro-N-[4-(4-fluoro-2-methoxy-phenyl)-pyridin-3-yl]-5-methanesulfonyl-N-methyl-benzamide], 79 nM.
As for `CN(C(=O)c1cc(C(F)(F)F)cc(S(C)(=O)=O)c1)c1cnccc1-c1ccccc1OCc1ccccc1` [Example 258, N-[4-(2-Benzyloxy-phenyl)-pyridin-3-yl]-3-methanesulfonyl-N-methyl-5-trifluoromethyl-benzamide], the figure is 1860 nM.
As for `COc1cc(F)ccc1-c1ccncc1N(C)C(=O)c1cc(SCCN2CCC2)cc(C(F)(F)F)c1` [Example 259, 3-(2-Azetidin-1-yl-ethylsulfanyl)-N-[4-(4-fluoro-2-methoxy-phenyl)-pyridin-3-yl]-N-methyl-5-trifluoromethyl-benzamide], the figure is 134 nM; as for `COc1cc(F)ccc1-c1ccncc1N(C)C(=O)c1cc(C2CC2)cc(S(C)(=O)=O)c1` [Example 260, 3-Cyclopropyl-N-[4-(4-fluoro-2-methoxy-phenyl)-pyridin-3-yl]-5-methanesulfonyl-N-methyl-benzamide], 153 nM; as for `COc1cc(F)ccc1-c1ccncc1N(C)C(=O)c1cc(SCCNS(N)(=O)=O)cc(C(F)(F)F)c1` [Example 261, N-[4-(4-fluoro-2-methoxyphenyl)pyridin-3-yl]-N-methyl-3-{[2-(sulfamoylamino)ethyl]-sulfanyl}-5-(trifluoromethyl)benzamide], 190 nM.
In the case of `COc1cc(F)ccc1-c1ccncc1N(C)C(=O)c1cc(SCCNS(C)(=O)=O)cc(C(F)(F)F)c1` [Example 262, N-[4-(4-Fluoro-2-methoxy-phenyl)-pyridin-3-yl]-3-(2-methanesulfonylamino-ethylsulfanyl)-N-methyl-5-trifluoromethyl-benzamide], a half-maximal response (EC50) required 231 nM.
As for `COc1ccccc1-c1ccncc1N(C)C(=O)c1cc(C(F)(F)F)cc(S(C)(=O)=O)c1` [Example 263, 3-Methanesulfonyl-N-[4-(2-methoxy-phenyl)-pyridin-3-yl]-N-methyl-5-trifluoromethyl-benzamide], the figure is 17 nM.
